Results from patent US7468369B2, “Sulfonyl pyrrolidines, method for producing the same and their use as drugs” (Sanofi-Aventis, priority 2005, dated 2008).
Structures can show the parent of a compound that is named as a salt.

System: human ABCA1 promoter
Assay: ABCA1 promoter test (luciferase reporter in stably transfected THP1 cell line)
Assay type: cell-based
Conditions: Homo sapiens, THP-1; ABCA1 reporter cell line (THP1, PMA-differentiated), 24 h incubation, luciferase chemiluminescence; read-out: E50 ABCA1
Experimental: The potency of substances which activate expression of the human ABCA1 gene via its promoter is analyzed by using a stably transfected THP1 cell line (human monocyte cell line) which is referred to herein as ABCA1 reporter cell line. It contains a fragment, 3.2 kb in size and stably integrated into the genome, of the human ABCA1 promoter in front of a luciferase reporter element. Expression of the luciferase reporter gene is only low without addition of an ABCA1 expression activator. The substances stimulating ABCA1 expression bring about, via activation of the ABCA1 promoter, an enhanced expression of the luciferase reporter gene. The luciferase which is formed can be detected via an appropriate substrate by means of chemiluminescence.
Construction of the Cell Line
The ABCA1 reporter line was prepared as follows: firstly the neomycin resistance gene (Acc. No.: AJ000156) was introduced into the luciferase reporter plasmid pLG3basic (#1751, Promega) 3′ below the luciferase reporter element. Subsequently, an ABCA1 promoter fragment, 3.2 kb in size and amplified from human genomic DNA (#6550-1, Clontech) by the polymerase chain reaction, was cloned in 5′ above the luciferase reporter element. The reporter plasmid produced in this way was called pGL3BN-ABCA1P. Luciferase expression in this plasmid is controlled by the ABCA1 promoter. Cloning and sequencing of the construct took place in analogy to the description in Sambrook J et al. (Molecular cloning, Cold Spring Harbor Laboratory Press, 1989). For stable transfection into THP1 cells, firstly pGL3BN-ABCA1P was linearized with a restriction endonuclease and then introduced into the THP1 cells as stated in Ausubel, F. M. et al. (Current protocols in molecular biology, Vol. 1-3, John Wiley & Sons, Inc., 1995).
The activity of ABCA1 expression activators is determined in a 3-day test which is described below:
The ABCA1 reporter cell line comprises suspension cells. These are cultured until the concentration is 0.5×10^6 cells/ml in RPMI medium (#52400-025, Invitrogen) which is mixed with the following additions: 10% FCS (fetal calf serum; #16000-044, invitrogen), 0.5 mg/ml Geneticin (#10131-019, invitrogen) and 1% penicillin-streptomycin solution (#15140-122, invitrogen). The culturing takes place in standard cell culture flasks (#353112, Becton Dickinson) in a cell culture incubator at 37° C. in the presence of 5% CO2.
For the ABCA1 promoter test, the suspension cells are centrifuged at 1200 rpm in 50 ml tubes. The supernatant is aspirated off, and the pellet is resuspended in 15 ml of RPMI medium and counted in a cell counter. After dilution to 175 000 cells/ml, 0.1 μg/ml PMA (phorbol 12-myristate 13-acetate, #8139-5MG, Sigma) is added in order to induce differentiation of the monocytic THP1 suspension cells into adherent macrophages. 35 000 cells in each well are seeded in a 96-well microtiter plate with clear plastic base (#3610, Corning Costar). The plates are incubated in a cell culture incubator at 37° C. and 5% CO2 for 24 h.
The ABCA1 expression activators to be tested are dissolved in a concentration of 10 mM in DMSO. This stock solution is diluted in the RPMI medium (mixed with 0.1 μg/ml PMA) described above. Test substances are tested in 11 different concentrations in the range from […] to 330 pM. The medium of the ABCA1 reporter cell line seeded on day 1 is completely removed by aspiration and the diluted test substances are immediately added to the cells. The dilution and addition of the substances takes place with a pipetting robot (Beckman FX). The final volume of the test substances diluted in medium is 100 μl per well of a 96-well microtiter plate. The DMSO concentration in the test is less than 0.1% v/v in order to avoid cytotoxic effects of the solvent.
The test plates are incubated in an incubator at 37° C. and 5% CO2 for 24 h.
The ABCA1 reporter cells treated with the test substances are removed from the incubator and the medium is aspirated off. […]

| EC50 | SMILES |
| --- | --- |
| 2340 nM | COc1cccc(S(=O)(=O)N2C[C@@H](C)[C@H](C(=O)N3CCN(c4cc(C)ccc4C)CC3)C2)c1 [Example 91, [3,4-trans-4-(2,5-Dimethylphenyl)piperazin-1-yl]-[1-(3-methoxybenzene-sulfonyl)-4-methylpyrrolidin-3-yl]methanone trifluoroacetate] |
| 2660 nM | Cc1ccc(N2CCN(C(=O)[C@@H]3CN(S(=O)(=O)c4ccc(Cl)s4)C[C@H]3c3ccccc3)CC2)c(C)c1 (racemic) [Example 38, [1-(5-Chlorothiophene-2-sulfonyl)-3,4-trans-4-phenylpyrrolidin-3-yl]-[4-(2,4-dimethylphenyl)piperazin-1-yl]methanone] |
| 3120 nM | COc1ccc(OC)c(N2CCN(C(=O)[C@@H]3CN(S(=O)(=O)CC(F)(F)F)C[C@H]3c3ccccc3)CC2)c1 [Example 76, [4-(2,5-Dimethoxyphenyl)piperazin-1-yl]-[3,4-trans-4-phenyl-1-(2,2,2-trifluoroethanesulfonyl)pyrrolidin-3-yl]methanone trifluoroacetate] |
| 177 nM | COc1cccc(S(=O)(=O)N2C[C@H](C(=O)N3CCN(c4cc(C)ccc4C)CC3)[C@H](c3ccccc3)C2)c1 [Example 119, [4-(2,5-Dimethylphenyl)piperazin-1-yl]-[1-(3-methoxybenzenesulfonyl)-3,4-cis-4-phenylpyrrolidin-3-yl]methanone trifluoroacetate] |
| 16200 nM | O=C([C@@H]1CN(S(=O)(=O)c2ccc(Cl)s2)C[C@H]1c1ccccc1)N1CCN(c2cccc(C(F)(F)F)c2)CC1 (racemic) [Example 32, [1-(5-Chlorothiophene-2-sulfonyl)-3,4-trans-4-phenylpyrrolidin-3-yl]-[4-(3-trifluoromethylphenyl)piperazin-1-yl]methanone] |
| 6270 nM | COc1cccc(S(=O)(=O)N2C[C@@H](C(=O)N3CCN(c4cc(C)ccc4C)CC3)[C@H](c3c(C)noc3C)C2)c1 [Example 104, [3,4-trans-4-(3,5-Dimethylisoxazol-4-yl)-1-(3-methoxybenzenesulfonyl)-pyrrolidin-3-yl]-[4-(2,5-dimethylphenyl)piperazin-1-yl]methanone trifluoroacetate] |
| 980 nM | COc1ccc(S(=O)(=O)N2C[C@@H](C(=O)N3CCN(c4cc(Cl)ccc4Cl)CC3)[C@H](c3ccccc3)C2)cc1 [Example 75, [4-(2,5-Dichlorophenyl)piperazin-1-yl]-[1-(4-methoxybenzenesulfonyl)-3,4-trans-4-phenylpyrrolidin-3-yl]methanone trifluoroacetate] |
| 2770 nM | Cc1ccc(C)c(N2CCN(C(=O)[C@@H]3CN(S(=O)(=O)c4sc5ccc(Cl)cc5c4C)C[C@H]3c3ccccc3)CC2)c1 (racemic) [Example 51, [1-(5-Chloro-3-methylbenzo[b]thiophene-2-sulfonyl)-3,4-trans-4-phenyl-pyrrolidin-3-yl]-[4-(2,5-dimethylphenyl)piperazin-1-yl]methanone] |
| 1950 nM | Cc1ccc(C)c(N2CCN(C(=O)[C@@H]3CN(S(=O)(=O)c4cc(Cl)c(Cl)s4)C[C@H]3c3ccccc3)CC2)c1 (racemic) [Example 49, [1-(4,5-Dichlorothiophene-2-sulfonyl)-3,4-trans-4-phenylpyrrolidin-3-yl]-[4-(2,5-dimethylphenyl)piperazin-1-yl]methanone] |
| 3220 nM | O=C([C@@H]1CN(S(=O)(=O)c2cccs2)C[C@H]1c1ccccc1)N1CCN(c2cccc(C(F)(F)F)c2)CC1 (racemic) [Example 30, [3,4-trans-4-Phenyl-1-(thiophene-2-sulfonyl)pyrrolidin-3-yl]-[4-(3-trifluoromethylphenyl)piperazin-1-yl]methanone] |
| 4630 nM | Cc1cccc(N2CCN(C(=O)[C@@H]3CN(S(=O)(=O)c4ccc(Cl)s4)C[C@H]3c3ccccc3)CC2)c1C (racemic) [Example 54, [1-(5-Chlorothiophene-2-sulfonyl)-3,4-trans-4-phenylpyrrolidin-3-yl]-[4-(2,3-dimethylphenyl)piperazin-1-yl]methanone] |
